In patent US8974793B2, “Methods and systems for inducing immunologic tolerance to non-self antigens” (The Governors Of The University Of Alberta, priority 2008, dated 2015):

Assay: Blood plasma stability of A type I antigen functionalized silica-coated stainless steel (modified ELISA readout)
Type: in vitro ADME, pig
Details: I-14 bound to silica-coated stainless steel, 12 days agitation
Protocol: Several silica-coated stainless steel samples bearing the A type I antigen were prepared, according to the general procedure defined above. Each of the samples was placed in three different types of pig blood plasma (blood group O, blood group A and commercial pooled blood group O plasma). The samples were agitated on a shaker table for 12 days. After 12 days, the samples were removed from the pig blood plasma and placed in ethanol.
Each silica-coated stainless steel stent surface was treated with a solution of 2% BSA in PBST (200 μL) and shaken (14 h, 5° C.). The surface was then removed and then incubated with mouse anti-A IgM antibodies (5° C., 14 h, 0.023 mg/mL, 50 μL). The surface was then removed, thoroughly washed with PBST and then treated with a secondary HRP conjugated goat anti-mouse IgM antibody (21° C., 3 h, 0.013 mg/mL, 50 μL). The surface was thoroughly washed with PBST to remove unbound antibody and then treated with a solution of SigmaFast OPD (200 μL, 1 h). An aliquot of this solution (100 μL) was then taken and the absorbance measured at 450 nm.

Measured: attachment of antigen to silica-coated stainless steel after plasma incubation (modified ELISA, anti-A IgM, absorbance 450 nm)

CO[Si](CCCSCCCCCCCCO[C@@H]1O[C@H](CO)[C@@H](O)[C@H](O[C@@H]2O[C@H](CO)[C@H](O)[C@H](O[C@H]3O[C@H](CO)[C@H](O)[C@H](O)[C@H]3NC(C)=O)[C@H]2O[C@@H]2O[C@@H](C)[C@@H](O)[C@@H](O)[C@@H]2O)[C@H]1NC(C)=O)(OC)OC [I-14, 8-(3-(trimethoxysilyl)propylthio)octan-1-yl 2-N-Acetyl-3-O-(3-O-(2-N-acetyl-2-deoxy-α-D-galactopyranosyl)-2-O-(α-L-fucopyranosyl)-β-D-galactopyranosyl)-2-deoxy-β-D-glucopyranoside]
confirming the attachment: pig A blood plasma | pig O blood plasma | pig-pooled O blood plasma
